# In US20210130401A1, “PEPTIDOMIMETIC INHIBITORS OF THE WDR5-MLL INTERACTION” (THE REGENTS OF THE UNIVERSITY OF MICHIGAN, priority 2017, published 2021):
# Starred links: 1 amine or outer side, 2 acyl side, 3 side chain; linkers in the order of their positions; H or OH if unused. Positions of bridges follow the written chain, without caps; N, C: chain ends. Non-standard residues stand in square brackets, D forms with d. Residues, ends and D or L forms follow the SMILES beside them. ξ: configuration not given here. *: point of attachment. dαMeDab = C[C@](CCN[*:3])(N[*:1])C(=O)[*:2]; dCha = N[C@H](CC1CCCCC1)C(=O)O; dPhg = N[C@@H](C(=O)O)c1ccccc1; ξhPhe = NC(CCc1ccccc1)C(=O)O; Isobutyryl = CC(C)C(=O)*; Abu = CC[C@H](N)C(=O)O; ξOrn = NCCCC(N)C(=O)O; ClAc = O=C(CCl)*
# System: MOLM-13 leukemia cells carrying MLL-AF9 fusion
# Experiment: cell viability assay (WST-8), MOLM-13
# Format: cell-based
# Conditions: Homo sapiens, MOLM-13, 96 h, read-out: MOLM-13 IC50 (μM)
row,SMILES,IC50 [µM]
1,"CC[C@@H]1NC(=O)[C@H](CCCNC(=N)N)NC(=O)[C@](C)(NC(=O)C(C)C)CCNC(=O)[C@@H](CC2CCCCC2)NC1=O [Cpd. No. 52, N-((3R,6S,9S,12R)-3-(cyclohexylmethyl)-6-ethyl-9-(3-guanidinopropyl)-12-methyl-2,5,8,11-tetraoxo-1,4,7,10-tetraazacyclotetradecan-12-yl)isobutyramide] (Isobutyryl-[dαMeDab]R[Abu][dCha]; lactam 1-C)",1.49
2,"CC[C@@H]1NC(=O)[C@H](CCCNC(=N)NC#N)NC(=O)[C@](C)(NC(=O)C(C)C)CCNC(=O)[C@@H](CC2CCCCC2)NC1=O [Cpd. No. 33, N-((3R,6S,9S,12R)-9-(3-(3-cyanoguanidino)propyl)-3-(cyclohexylmethyl)-6-ethyl-12-methyl-2,5,8,11-tetraoxo-1,4,7,10-tetraazacyclotetradecan-12-yl)isobutyramide]",6.5
3,"CC[C@@H]1NC(=O)[C@H](CCCNC2CCN(C)CC2)NC(=O)[C@](C)(NC(=O)C(C)C)CCNC(=O)[C@@H](c2ccccc2)NC1=O [Cpd. No. 9, N-((3R,6S,9S,12R)-6-ethyl-12-methyl-9-(3-((1-methylpiperidin-4-yl)arnino)propyl)-2,5,8,11-tetraoxo-3-phenyl-1,4,7,10-tetraazacyclotetradecan-12-yl)isobutyramide]",> 10
4,"CC[C@@H]1NC(=O)[C@H](CCCNC(=N)NC(=N)N)NC(=O)[C@](C)(NC(=O)C(C)C)CCNC(=O)[C@@H](CC2CCCCC2)NC1=O [Cpd. No. 35, N-((3R,6S,9S,12R)-9-(3-(3-carbamimidoylguanidino)propyl)-3-(cyclohexylmethyl)-6-ethyl-12-methyl-2,5,8,11-tetraoxo-1,4,7,10-tetraazacyclotetradecan-12-yl)isobutyramide]",> 10
5,"CC[C@@H]1NC(=O)[C@H](CCNC2=NCCN2)NC(=O)[C@](C)(NC(=O)C(C)C)CCNC(=O)[C@@H](c2ccccc2)NC1=O [Cpd. No. 18, N-((3R,6S,9S,12R)-9-(2-((4,5-dihydro-1H-imidazol-2-yl)amino)ethyl)-6-ethyl-12-methyl-2,5,8,11-tetraoxo-3-phenyl-1,4,7,10-tetraazacyclotetradecan-12-yl)isobutyramide]",> 10
6,"CC[C@@H]1NC(=O)C(CCc2ccccc2)NC(=O)[C@](C)(NC(=O)C(C)C)CCNC(=O)[C@@H](c2ccccc2)NC1=O (stereo partly drawn) [Cpd. No. 13, N-((3R,6S,12R)-6-ethyl-12-methyl-2,5,8,11-tetraoxo-9-phenethyl-3-phenyl-1,4,7,10-tetraazacyclotetradecan-12-yl)isobutyramide] (Isobutyryl-[dαMeDab][ξhPhe][Abu][dPhg]; lactam 1-C)",> 10
7,"CC[C@@H]1NC(=O)[C@H](CCCN2CCN(C)CC2)NC(=O)[C@](C)(NC(=O)C(C)C)CCNC(=O)[C@@H](CC2CCCCC2)NC1=O [Cpd. No. 43, N-((3R,6S,9S,12R)-3-(cyclohexylmethyl)-6-ethyl-12-methyl-9-(3-(4-methylpiperazin-1-yl)propyl)-2,5,8,11-tetraoxo-1,4,7,10-tetraazacyclotetradecan-12-yl)isobutyramide]",> 10

# Same assay, conditions: Homo sapiens, MOLM-13, 96 h; Table 2A; 4 days treatment; read-out: MOLM-13 IC50
row,IC50 [µM],SMILES
1,> 10,"CC[C@@H]1NC(=O)C(CCCNC(=O)CCl)NC(=O)[C@](C)(NC(=O)C(C)C)CCNC(=O)[C@@H](c2ccccc2)NC1=O (stereo partly drawn) [Cpd. No. 25, N-((3R,6S,12R)-9-(3-(2-chloroacetamido)propyl)-6-ethyl-12-methyl-2,5,8,11-tetraoxo-3-phenyl-1,4,7,10-tetraazacyclotetradecan-12-yl)isobutyramide] (Isobutyryl-[dαMeDab][ξOrn](ClAc)[Abu][dPhg]; lactam 1-C)"
2,> 10,"CC[C@H](C)[C@@H]1NC(=O)[C@H](CCCNC(=N)N)NC(=O)[C@](C)(NC(=O)C(C)C)CCNC(=O)[C@@H](c2ccccc2)NC1=O [Cpd. No. 90, N-((3R,6S,9S,12R)-6-((S)-sec-butyl)-9-(3-guanidinopropyl)-12-methyl-2,5,8,11-tetraoxo-3-phenyl-1,4,7,10-tetraazacyclotetradecan-12-yl)isobutyramide] (Isobutyryl-[dαMeDab]RI[dPhg]; lactam 1-C)"
